According to US20200022967A1, “Use of 2-carboxamide cycloamino urea derivatives in the treatment of EGFR dependent diseases or diseases that have acquired resistance to agents that target EGFR family members” (Novartis AG, priority 2010, published 2020):

How the values were obtained:
NCI-N87 tumors = experiment: NCI-N87 subcutaneous gastric cancer xenograft, antitumor activity (Example 2); assay type: in vivo, mice; settings: 50 mg/kg p.o. once daily
Description: (§1) Experiments were performed in female HsdNpa:Athymic Nude-nu mice approximately 8-12 weeks of age at treatment start. All animals were housed under Optimized Hygienic conditions in Makrolon type III cages (max. 10 animals per cage) with free access to food and water.
NCI-N87 cells (obtained from the American Type Culture Collection), which are of gastric origin and ErbB2 amplified, were grown in DMEM culture medium containing 4.5 g/l glucose supplemented with 10% heat-inactivated FCS, 2 mM L-glutamine, and 1 mM sodium pyruvate. The cells were incubated at 37° C. in a 5% CO2 humidified atmosphere. Cells were harvested with trypsin (0.25% w/v)-EDTA (0.53 mM), re-suspended in culture medium (with additives) and counted with a Casy® system. Cell culture reagents were purchased from BioConcept (Allschwil, Switzerland).
NCI-N87 tumors were established from fragments of approximately 40 mg implanted subcutaneously into the female HsdNpa:Athymic Nude-nu mice with a trocar needle. Treatment started when the tumors reached a size of approximately 110 mm^3, 25 days post implantation.
The Compound was fully dissolved in NMP. Then, PEG300 and liquified Solutol were added (in sequence with vortexing after addition of each reagent). Water was added immediately prior to administration to the animals.
(§2) Tumor volumes were measured with calipers and determined according to the formula: length×diameter^2×π/6. […] Regressions (%) were calculated according to the formula ((mean tumor volume at end of treatment-mean tumor volume at start of treatment)/mean tumor volume at start of treatment)×100. Body weights and tumor volumes were recorded twice a week.
Where applicable, data is presented as mean±SEM. For all tests, the level of significance was set at p<0.05. For tumor volumes, comparisons between treatment groups and vehicle control group were done using one-way ANOVA followed by Dunnett's test. The level of significance of body weight change within a group between the start and the end of the treatment period was determined using a paired t-test. […]

BT-474 tumors = experiment: BT474 orthotopic breast cancer xenograft, antitumor activity (Example 1); assay type: in vivo, mice
Description: as §1
BT-474 cells, which are human breast ductal carcinoma cells and ErbB2 amplified with a PIK3CA mutation K111N, were grown in DMEM culture medium containing 4.5 g/l glucose supplemented with 10% heat-inactivated FCS, 2 mM L-glutamine, 1 mM sodium pyruvate and incubated at 37° C. in a 5% CO2 humidified atmosphere. Cell culture reagents were purchased from BioConcept (Allschwil, Switzerland).
BT-474 tumors were established in vivo by injection 3×10^6 cells in 30 μl HBSS (Sigma # H8264) containing 1 mg/ml Matrigel (BD #34234) orthotopically into the 3rd mammary gland on the right side of the animals. The efficacy experiments started when the tumors reached an average size of approximately 130 mm^3 (day 14-16 post cell injection). The PK/PD experiment was performed when the tumors reached a size of 150-250 m m^3 (day 22 after cell injection). On the day of cell injection, a 0.025 17β Estradiol pellent has been implanted subcutaneously on the left flank into each experimental animal under Forene® inhalation narcosis.
The Compound was fully dissolved in NMP. Then, PEG300 and liquified Solutol were added (in sequence with vortexing after addition of each reagent). Water was added immediately prior to administration to the animals. Compound A or vehicle was administered orally at a volume of 10 ml/kg.
as §2
Where applicable, data is presented as mean±SEM. For all tests, the level of significance was set at p<0.05. For tumor volumes, comparisons between treatment groups and vehicle control group were done using one-way ANOVA followed by Dunnett's test. The level of significance of body weight change within a group between the start and the end of the treatment period was determined using a paired t-test. Comparisons of delta body weights between treatment and vehicle control groups were performed by a one-way ANOVA followed by a post hoc Dunnett's test.
In the first experiment, Compound A was orally administered daily to BT-474 orthotopic xenografts, tumor-bearing nude mice at a dose of 50 mg/kg. […] Compound A administered orally at 50 mg/kg once daily produces a mean tumor change of tumor volume of −29.7±15.6 mm^3 (p<0.01, ANOVA and post-hoc Dunnett's) as compared to vehicle (mean tumor change of 315.1±16.4 mm^3), with a 23.0% regression in the first experiment.
In a second experiment, Compound A was orally administered daily to BT-474 orthotopic xenografts, tumor-bearing nude mice at doses of 12.5, 25 and 50 mg/kg. […] (See FIG. 1). Compound A administered orally at 12.5, 25 and 50 mg/kg once daily produces a mean change of tumor volume of 171.8±33.0 mm^3 (p<0.01, ANOVA and post-hoc Dunnett's), 95.5±26.5 mm^3 (p<0.01, ANOVA and post-hoc Dunnett's), and 20.8±15.9 mm^3 (p<0.01, ANOVA and post-hoc Dunnett's) respectively as compared to vehicle (mean change of tumor volume of 557.7±79.0 mm^3) in the second experiment. (See FIG. 3)

Question: What does the source list for Cc1nc(NC(=O)N2CCC[C@H]2C(N)=O)sc1-c1ccnc(C(C)(C)C(F)(F)F)c1 [Compound A, (S)-Pyrrolidine-1,2-dicarboxylic acid 2-amide 1-({4-methyl-5-[2-(2,2,2-trifluoro-1,1-dimethyl-ethyl)-pyridin-4-yl]-thiazol-2-yl}-amide)]?
Answer: regression (NCI-N87 tumors): 11%; antitumor effect as compared to vehicle (NCI-N87 tumors; p<0.05 ANOVA): statistically significant antitumor effect; mean change of tumor volume (NCI-N87 tumors; vehicle 694.0±93.5): −11.8±17.2 mm^3; antitumor effect as compared to vehicle (BT-474 tumors; 12.5, 25 and 50 mg/kg p.o. once daily, p<0.05 ANOVA): statistically significant antitumor effect; regression (BT-474 tumors; first experiment, 50 mg/kg p.o. once daily): 23.0%; mean change of tumor volume (BT-474 tumors; first experiment, 50 mg/kg p.o. once daily, vehicle 315.1±16.4): −29.7±15.6 mm^3; mean change of tumor volume (BT-474 tumors; second experiment, 12.5 mg/kg p.o. once daily, vehicle 557.7±79.0): 171.8±33.0 mm^3; mean change of tumor volume (BT-474 tumors; second experiment, 25 mg/kg p.o. once daily, vehicle 557.7±79.0): 95.5±26.5 mm^3; mean change of tumor volume (BT-474 tumors; second experiment, 50 mg/kg p.o. once daily, vehicle 557.7±79.0): 20.8±15.9 mm^3
